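48-hour exposure; five concentrations; linearly interpolated endpoints. TGI marks complete inhibition of growth.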
How the values were obtained:
Assay in all cases: NCI tumour cell line growth inhibition, 48 h
786-0 renal = tested on: 786-0 renal
A549 NSCLC = tested on: A549 NSCLC
CAKI-1 renal = tested on: CAKI-1 renal
COLO 205 colon = tested on: COLO 205 colon
HCT-15 colon = tested on: HCT-15 colon
HL-60(TB) leukemia = tested on: HL-60(TB) leukemia
HOP-92 NSCLC = tested on: HOP-92 NSCLC
HS 578T breast = tested on: HS 578T breast
HT29 colon = tested on: HT29 colon
LOX IMVI melanoma = tested on: LOX IMVI melanoma
MOLT-4 leukemia = tested on: MOLT-4 leukemia
NCI-H226 lung = tested on: NCI-H226 lung
OVCAR-4 ovarian = tested on: OVCAR-4 ovarian
SK-MEL-2 melanoma = tested on: SK-MEL-2 melanoma
UACC-62 melanoma = tested on: UACC-62 melanoma

SMILES	TGI (786-0 renal) [µM]	TGI (A549 NSCLC) [µM]	TGI (CAKI-1 renal) [µM]	TGI (COLO 205 colon) [µM]	TGI (HCT-15 colon) [µM]	TGI (HL-60(TB) leukemia) [µM]	TGI (HOP-92 NSCLC) [µM]	TGI (HS 578T breast) [µM]	TGI (HT29 colon) [µM]	TGI (LOX IMVI melanoma) [µM]	TGI (MOLT-4 leukemia) [µM]	TGI (NCI-H226 lung) [µM]	TGI (OVCAR-4 ovarian) [µM]	TGI (SK-MEL-2 melanoma) [µM]	TGI (UACC-62 melanoma) [µM]
COC(=O)c1c(C)cccc1C1CN=NC12Cc1c(C)cccc1C2=O (stereo not given)	> 100	> 100	> 100	> 100	> 100	> 100	> 100	> 100	> 100	> 100	> 100	> 100	> 100	> 100	> 100
COc1cccc(NC(=O)c2c(SC)n[nH]c2N)c1	> 100	> 100	> 100	> 100	> 100	> 100	> 100	> 100	> 100	> 100	> 100	> 100	> 100	> 100	> 100
Cc1ccc(-c2n[nH]c(=O)n2N)cc1	> 100	> 100	> 100	> 100	> 100	> 100	> 100	> 100	> 100	> 100	> 100	> 100	> 100	> 100	> 100
O=c1[nH]ncc2[nH]c3c(c12)CCCc1ccccc1-3	> 100	> 100	> 100	53.2	> 100	> 100	> 100	45.8	> 100	> 100	> 100	> 100	> 100	> 100	> 100
COc1ccc(C(F)(F)F)cc1NC(=O)O/N=C(/Cl)C(C)C	31.8	40	3.18	4.1	> 30.4	> 21.8	18.9	> 78.3	53.3	13.2	6.2	35.6	35.8	35.6	36.7
COc1ccc(Oc2nc3cc(C(F)(F)F)ccc3nc2C(C)C)cc1	> 100	> 100	> 100	30.2	59.4	37.7	54.9	> 100	44.6	30.5	36.9	49.6	> 100	38.5	> 100
CCN(CC)CC1CCCCN1CC(=O)N1c2ccc(Br)cc2C(=O)Nc2cccnc21 (stereo not given)	> 100	> 100	> 100	> 100	> 100	> 100	> 100	> 100	> 100	> 100	> 100	> 100	> 100	> 100	> 100
O=C(/C=C/c1ccc(O)c(O)c1)Oc1ccccc1	48.1	59	32.5	29.2	36.2	20.1	47.6	49	48.8	21	> 48.4	> 100	> 100	44	35.9
COC(=O)c1ccccc1C1CN=NC12Cc1c(C)c3c(c(C)c1C2=O)CCC3 (stereo not given)	> 100	> 100	> 100	> 100	> 100	> 100	> 100	> 100	> 100	> 100	> 100	> 100	> 100	> 100	> 100
CNC(=S)N/N=C(\C)c1ccc(OC)cc1O	> 100	> 100	> 100	> 100	> 100	> 100	> 100	> 100	> 100	> 100	> 100	> 100	94.2	> 100	> 100
COc1ccc(OC)c2c1C(=O)C(Cl)=C(Cl)C2=O	10.5	56.4	7.99	3.21	10.7	> 100	8.14	6.06	15.5	5.18	8.87	42.2	13	8.73	6.9
CCOC(=O)c1c(SCC#N)n(-c2ccccc2)c(=S)n(-c2ccccc2)c1=O	> 100	> 100	> 100	> 100	> 100	> 100	93.3	> 100	> 100	> 100	67.6	> 100	> 100	> 100	> 100
Cc1nc(SCC(=O)Nc2ccccc2)c2sc(=S)n(-c3ccccc3)c2n1	> 10	> 10	> 10	> 10	> 10	> 10	> 10	> 10	> 10	> 10	> 10	8.99	> 10	> 10	> 10
COc1ccc(C(=O)N=C2N(c3ccccc3)C(=Nc3ccccc3)C(=Nc3ccccc3)N2c2ccccc2)cc1	59.5	> 100	> 100	> 100	> 100	> 100	15	96.5	> 100	> 100	> 100	> 100	87.3	98.1	> 100
OC(CCN1CCN(CCOC(c2ccc(F)cc2)c2ccc(F)cc2)CC1)c1ccccc1 (stereo not given)	25.6	31	33.6	18.2	27.1	37.3	23.8	37.3	21.6	28.2	29.1	34.4	39.4	30.1	28.2
COC(=O)C1=C(O)C(C(=O)OC)[C@@]2(O)[C@@H](C(=O)OC)C(c3ccc(OC(=O)/C(=C/c4ccccc4)c4ccccc4)cc3)C[C@@H]1[C@@H]2C(=O)OC (stereo not given in full)	> 100	> 100	> 100	> 100	> 100	> 100	> 100	> 100	> 100	22.5	> 100	42.6	> 100	46.2	17.2
CCCCC/C=C1\CCC(CN2CCOCC2)C1=O (stereo not given)	7.17	39.4	9.79	13.7	21.8	24.2	29	> 100	35.7	10.5	7.55	33.5	48	29.6	28.5
COc1ccc(-c2c(N)n(-c3cc(OC)cc(OC)c3)c(=O)c3cc([N+](=O)[O-])ccc23)cc1	> 100	> 100	> 31.6	> 100	> 100	> 100	34.1	> 100	> 100	> 100	> 100	> 100	> 100	> 100	> 100
CC1=CC(=O)c2cccc(O)c2C1=O	3.09	34.7	3.29	4.36	3.04	9.13	3.29	7.13	10.4	8.6	> 28.3	14.4	3.39	4.57	3.68
COc1ccc(/C=C/c2cc(=O)cc(/C=C/c3ccc(OC)c(O)c3)o2)cc1O	> 34	12.6	12	> 61.1	13.6	5.02	13.5	> 100	4.1	3.95	4.9	20.7	9.77	7.99	3.53
Cc1occc1C(=S)Nc1ccc(Cl)c(C(=O)OCC2CC2)c1	> 100	> 100	> 100	> 100	> 100	75.3	> 100	> 100	> 100	> 100	> 100	> 100	> 100	> 100	> 100
Fc1ccc(C(OCCN2CC3CC2CN3CCCc2ccccc2)c2ccc(F)cc2)cc1 (stereo not given)	18	26.6	24.6	3.11	16.8	12.3	26.7	25.8	15.5	19.2	12.5	23.9	25.8	21.8	23.1

— PubChem BioAssay (NCI)
